Measured values: ChEMBL document CHEMBL1128985, “Mechanism-based inactivation of -chymotrypsin” (Bioorg Med Chem Lett, 1996)

What was measured:
[1] = target: Chymotrypsinogen A (Bos taurus) (UniProt P00766); test: Irreversible inhibitory activity against alpha-chymotrypsin; No inhibition
[2] = target: T1, Chymotrypsin-like elastase family member 2A (Sus scrofa) (UniProt P08419); test: Irreversible inhibitory activity against porcine pancreatic elastase at concentration 4.8 uM; No irreversible inhibitory activity
T1 sequence (whole entry): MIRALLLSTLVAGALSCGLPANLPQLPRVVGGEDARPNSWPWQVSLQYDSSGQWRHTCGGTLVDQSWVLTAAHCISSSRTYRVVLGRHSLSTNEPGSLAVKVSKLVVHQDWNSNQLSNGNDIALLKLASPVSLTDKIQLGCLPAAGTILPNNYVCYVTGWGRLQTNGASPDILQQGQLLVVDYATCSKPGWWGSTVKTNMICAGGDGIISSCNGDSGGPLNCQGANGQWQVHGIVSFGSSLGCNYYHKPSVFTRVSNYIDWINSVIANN

[3] = target: Chymotrypsinogen A (Bos taurus) (UniProt P00766); test: Irreversible inhibitory activity against alpha-chymotrypsin; Inhibition observed

Activity [1] [mM] | Activity [2] [mM] | Activity [3] [µM] | Compound
< 1 |  |  | O=C(O)CCC(=O)N[C@@H](Cc1ccccc1)C(=O)OC1CC1(Cl)Cl (some centres undefined)
14.5 |  |  | O=C(O)CCC(=O)N[C@@H](Cc1ccccc1)C(=O)NC1CC1(Cl)Cl (some centres undefined)
 | 1.2 | 500 | CC(NC(=O)C(C)NC(=O)CCC(=O)N[C@@H](Cc1ccccc1)C(=O)OC1CC1(Cl)Cl)C(=O)O (some centres undefined)
